Laboratory results taken from patent US4075341A, “2-Substituted phenyl-5-triazols [5,1-a] isoquinoline compounds” (Gruppo Lepetit S.p.A., priority 1975, dated 1978).
Read-outs that look alike come from different tables or passages of the source.

Legend:
[1] = system: conditioned rats; assay: secondary conditioned avoidance response test (anti-anxiety effect); format: in vivo
Method: The CNS depressant properties were investigated according to the Irwin method, and in particular, the anti-anxiety effect was evaluated on the basis of the secondary conditioned avoidance response test. A specific anti-anxiety effect was evidenced by administering to conditioned rats doses of 15-60 mg./kg. i.p. of representative compounds of the invention.
The following table indicates the ratio of the rats which were deconditioned after administration of a predetermined amount of a representative compound: […]

[2] = acute toxicity LD50 in mice; settings: mouse, in vivo, ip; i.p. in mice
[3] = system: female Syrian golden hamsters; assay: anti-fertility activity in pregnant female Syrian golden hamsters; format: in vivo; parameters: key to anti-fertility activity (active according to criteria): active: a reduction of live fetuses in at least 60% of the treated animals and the presence of implantation sites proves the animal to have been pregnant; settings: for anti-fertility activity (active according to criteria): 10 mg./kg. s.c. daily for 5 days, days 4-8 of pregnancy, autopsy day 14; for ED50: Mesocricetus auratus, sc, read-out: ED50 (dose showing 100% effectiveness in 50% of the treated animals)
Method: Representative experiments for assessing anti-fertility activity are carried out with female Syrian golden hamsters weighing 100 to 130 g. The animals are mated and the presence of sperm in the vagina is taken as evidence of mating. The day sperm is detected is considered day one of pregnancy, since in our laboratories and those of other investigators 90 to 100% of animals that mate as evidenced by vaginal sperm are pregnant. Pregnancy is later confirmed at the time of autopsy by presence of fetuses or implantation sites in the uterus. Even if an animal aborts the fetus, implantation scars still remain as evidence that the animal had been pregnant. Test compounds dissolved or suspended in sesame oil are administered subcutaneously in doses of 10 mg./kg. daily for 5 days beginning on day 4 of pregnancy (days 4-8). The animals are autopsied on day 14 of pregnancy and the uteri are examined for evidence of pregnancy (implantation sites, fetal resorptions or live fetuses), hemorrage, and evidence of abnormalities of the uterus, placenta or fetuses. A compound is considered to be active if there is a reduction of live fetuses in at least 60% of the treated animals and the presence of implantation sites proves the animal to have been pregnant. […] The compounds are then studied for dose-activity relationship and toxicity or other biological activities. Compounds that show 100% effectiveness (absence of live fetuses in 100% of animals) with minimal side effects or toxicity are studied in depth.
The ED50 values identify the dose levels which show 100% effectiveness (defined as above) in 50% of the treated animals.

[4] = system: female beagle dogs; assay: anti-fertility activity in pregnant female beagle dogs; format: in vivo; settings: Canis lupus familiaris, sc; single subcutaneous dose on 20th day of pregnancy, opened on 35th day; read-out: Minimal effective doses (100% effectiveness, absence of live fetuses in 100% of the animals)
Excerpt: In performing experiments with dogs, female beagle dogs weighing approximately 10 kg. are mated and on the 20th day of pregnancy the animals are given single subcutaneous doses of the compounds that were active in both the rat and the hamster. On the 35th day of pregnancy, the animals are surgically opened and the uteri are examined for presence of fetuses, placental tissue etc. Following Table III reports the minimal doses of representative compounds showing a 100% effectiveness (absence of live fetuses in 100% of the animals).

[5] = system: carrageenin induced edema; assay: carrageenin test in rats (anti-inflammatory activity); format: in vivo; settings: Rattus norvegicus, po; 50 mg./kg. p.o.
Excerpt: The anti-inflammatory activity of some inventive compounds was evidenced by means of the carrageenin test in rats.

[6] = Table I, 5,6-dihydro compounds, hamsters
[7] = Table II, 5,6-unsaturated compounds, similar experiments

Structure (SMILES) | anti-fertility activity (active according to criteria) [3] | ED50 [3, 6] [mg/kg] | other results
N=C(NN1CCc2ccccc2C1=O)c1cccc([N+](=O)[O-])c1 [2-(m-Nitrobenzimidoylamino)-3,4-dihydro-1-(2H) isoquinolinone] |  |  | Deconditioned/treated ([1]; dose 30 mg./kg. i.p.): 6/10; Deconditioned/treated ([1]; dose 60 mg./kg. i.p.): 10/10; LD50 [2]: > 600 mg/kg
N=C(NN1CCc2ccccc2C1=O)c1ccccc1 [2-Benzimidoylamino-3,4-dihydro-1 (2H)-isoquinolinone] |  |  | Deconditioned/treated ([1]; dose 60 mg./kg. i.p.): 10/10; LD50 [2]: > 600 mg/kg
CCOC(=O)NC(=S)Nc1nc2n(n1)CCc1ccccc1-2 [2-carbethoxythioureido-5,6-dihydro-s-triazole-[5,1-a]isoquinoline] |  |  | Deconditioned/treated ([1]; dose 60 mg./kg. i.p.): 7/10; LD50 [2]: > 600 mg/kg
COc1cccc(-c2nc3n(n2)CCc2ccccc2-3)c1 [Example 1, 2-(m-Methoxyphenyl)-5,6-dihydro-s-triazolo[5,1-a]isoquinoline] | active | 0.1 | minimal effective dose [4]: 12.5 mg/kg
Cc1ccccc1-c1nc2n(n1)CCc1ccccc1-2 [Example 2, 2-(o-toluyl)-5,6-dihydro-s-triazolo[5,1-a]isoquinoline, reference compound] |  | > 10 | 
Cc1cccc(-c2nc3n(n2)CCc2ccccc2-3)c1 [Example 3, 2-(m-toluyl)-5,6-dihydro-s-triazolo[5,1-a]isoquinoline, reference compound] |  | > 10 | 
Cc1ccc(-c2nc3n(n2)CCc2ccccc2-3)cc1 [Example 4, 2-(p-toluyl)-5,6-dihydro-s-triazolo[5,1-a]isoquinoline, reference compound] |  | 2 | 
c1ccc(-c2nc3n(n2)CCc2ccccc2-3)cc1 [Example 5, 2-phenyl-5,6-dihydro-s-triazolo[5,1-a]isoquinoline, reference compound] |  | 1 | 
Clc1cccc(-c2nc3n(n2)CCc2ccccc2-3)c1 [Example 7, 2-(m-chlorophenyl)-5,6-dihydro-s-triazolo[5,1-a]isoquinoline] | active | 0.75 | 
Clc1ccc(-c2nc3n(n2)CCc2ccccc2-3)cc1 [Example 8, 2-(p-chlorophenyl)-5,6-dihydro-s-triazolo[5,1-a]isoquinoline] | active | 0.065 | 
Cc1nc2n(n1)CCc1ccccc1-2 [Example 9, 2-methyl-5,6-dihydro-s-triazolo[5,1-a]isoquinoline, reference compound] |  | > 10 | 
c1cncc(-c2nc3n(n2)CCc2ccccc2-3)c1 [Example 10, 2-(3-pyridyl)-5,6-dihydro-s-triazolo[5,1-a]isoquinoline] |  |  | Deconditioned/treated ([1]; dose 15 mg./kg. i.p.): 10/10; LD50 [2]: > 400 mg/kg
COc1cc(OC)cc(-c2nc3n(n2)CCc2ccccc2-3)c1 [Example 12, 2-(3,5-dimethoxyphenyl)-5,6-dihydro-s-triazolo[5,1-a]isoquinoline] | active |  | 
CCOc1cccc(-c2nc3n(n2)CCc2ccccc2-3)c1 [Example 13, 2-(m-ethoxyphenyl)-5,6-dihydro-s-triazolo[5,1-a]isoquinoline] | active | 0.03 | minimal effective dose [4]: 6.25 mg/kg
CCCOc1cccc(-c2nc3n(n2)CCc2ccccc2-3)c1 [Example 14, 2-(m-propoxyphenyl)-5,6-dihydro-s-triazolo[5,1-a]isoquinoline] | active | 0.11 | minimal effective dose [4]: 6.25 mg/kg
c1ccc(COc2cccc(-c3nc4n(n3)CCc3ccccc3-4)c2)cc1 [Example 15, 2-(m-benzyloxyphenyl)-5,6-dihydro-s-triazolo[5,1-a]isoquinoline] | active |  | 
c1ccc2c(c1)CCn1nc(-c3ccc4c(c3)OCO4)nc1-2 [Example 16, 2-(3,4-methylenedioxyphenyl)-5,6-dihydro-s-triazolo[5,1-a]isoquinoline] | active |  | 
Fc1cccc(-c2nc3n(n2)CCc2ccccc2-3)c1 [Example 19, 2-(m-fluorophenyl)-5,6-dihydro-s-triazolo[5,1-a]isoquinoline] | active |  | 

Structure (SMILES) | anti-fertility activity (active according to criteria) [3] | ED50 [3, 6] [mg/kg] | other results
CC(C)Oc1cccc(-c2nc3n(n2)CCc2ccccc2-3)c1 [Example 21, 2-(m-isopropoxyphenyl)-5,6-dihydro-s-triazolo[5,1-a]isoquinoline] | active | 0.25 | 
CCCCCOc1cccc(-c2nc3n(n2)CCc2ccccc2-3)c1 [Example 22, 2-(m-pentyloxyphenyl)-5,6-dihydro-s-triazolo[5,1-a]isoquinoline] | active |  | 
c1cc(OC2CCCC2)cc(-c2nc3n(n2)CCc2ccccc2-3)c1 [Example 23, 2-(m-cyclopentyloxyphenyl)-5,6-dihydro-s-triazolo[5,1-a]isoquinoline] | active |  | 
C=CCOc1cccc(-c2nc3n(n2)CCc2ccccc2-3)c1 [Example 24, 2-(m-allyloxyphenyl)-5,6-dihydro-s-triazolo[5,1-a]isoquinoline] | active | 0.18 | minimal effective dose [4]: 6.25 mg/kg
C#CCOc1cccc(-c2nc3n(n2)CCc2ccccc2-3)c1 [Example 25, 2-(m-propargyloxyphenyl)-5,6-dihydro-s-triazolo[5,1-a]isoquinoline] | active | 0.21 | 
CN(C)c1ccc(-c2nc3n(n2)CCc2ccccc2-3)cc1 [Example 27, 2-(p-dimethylaaminophenyl)-5,6-dihydro-s-triazolo[5,1-a]isoquinoline] | active |  | 
Fc1ccc(-c2nc3n(n2)CCc2ccccc2-3)cc1 [Example 28, 2-(p-fluorophenyl)-5,6-dihydro-s-triazolo[5,1-a]isoquinoline] | active | 0.1 | 
CCCCOc1cccc(-c2nc3n(n2)CCc2ccccc2-3)c1 [Example 31, 2-(m-butoxyphenyl)-5,6-dihydro-s-triazolo[5,1-a]isoquinoline] | active |  | 
Nc1nc2n(n1)CCc1ccccc1-2 [Example 32] |  |  | Deconditioned/treated ([1]; dose 30 mg./kg. i.p.): 6/10; LD50 [2]: > 600 mg/kg
CC(=O)N(C(C)=O)c1nc2n(n1)CCc1ccccc1-2 [Example 34, 2-Diacetylamino-5,6-dihydro-s-triazolo[5,1-a]isoquinoline] |  |  | Deconditioned/treated ([1]; dose 60 mg./kg. i.p.): 6/9; LD50 [2]: > 600 mg/kg
CC(=O)Nc1nc2n(n1)CCc1ccccc1-2 [Example 35, 2-Acetamido-5,6-dihydro-s-triazolo[5,1-a]isoquinoline] |  |  | Deconditioned/treated ([1]; dose 60 mg./kg. i.p.): 7/10; LD50 [2]: > 400 mg/kg
Sc1nc2n(n1)CCc1ccccc1-2 [Example 38, 2-Sulfhydryl-5,6-dihydro-s-triazolo[5,1-a]isoquinoline] |  |  | inhibition at 50 mg/kg [5]: ~35%
CN(C)c1cccc(-c2nc3n(n2)CCc2ccccc2-3)c1 [Example 41, 2-(m-Dimethylaminophenyl)-5,6-dihydro-s-triazolo[5,1-a]isoquinoline] | active |  | 
Oc1cccc(-c2nc3n(n2)CCc2ccccc2-3)c1 [Example 42, 2-(3-Hydroxyphenyl)-5,6-dihydro-s-triazolo[5,1-a]isoquinoline] | active |  | 
COc1cccc(-c2nc3c4ccccc4ccn3n2)c1 [Example 58, 2-(m-Methoxyphenyl)-s-triazolo[5,1-a]isoquinoline] | active |  | ED50 [3, 7]: 0.1 mg/kg
c1ccc(-c2nc3c4ccccc4ccn3n2)cc1 [Example 59, 2-Phenyl-s-triazolo[5,1-a]isoquinoline, reference compound] |  |  | ED50 [3, 7]: 0.25 mg/kg
Clc1ccc(-c2nc3c4ccccc4ccn3n2)cc1 [Example 61, 2-(p-Chlorophenyl)-s-triazolo[5,1-a]isoquinoline] | active |  | ED50 [3, 7]: 0.08 mg/kg
